Data published in patent US8252798B2, “Purine compounds” (Eli Lilly and Company, priority 2008, dated 2012).
Counter-ions that a name gives are not always drawn. Each block holds one compound with its values, some of them ahead of it.

Key:
[1] = tested on: male Lewis rats; test: Monoiodoacetate (MIA) model, incapacitance testing of knee pain; format: in vivo; conditions: rat MIA model
Procedure: For all studies male Lewis rats of approximately 8 weeks of age at the time of MIA injection are used to measure pain in the MIA model. The rats are housed in groups of 2 or 3 per cage and maintained in a constant temperature and on a 12 hour light/12 hour dark cycle. Animals have free access to food and water at all times except during data collection.
In the standard MIA model the right knees of each rat are injected with 0.3 mg MIA in 50 ul of saline and the left knees with 50 ul of saline. Pain is measured at varying times after MIA injection (not normally before 10 day post MIA injection) using incapacitance testing. This measures the difference in hind paw weight bearing between the MIA and saline injected knees, and each measurement is the average of 3 separate measurements each measured over 1 second.
For studies with CB2 agonists rats are randomized into dose groups (n=5 or 6) and then dosed once with the compound under investigation. Dosing is staggered by 15 minutes for each rat and at a predetermined time post-dose (usually 2 hours), pain measured using incapacitance testing. Studies are routinely run with 4 groups, vehicle (1% carboxy methyl cellulose in water plus 0.25% polysorbate 80) and 3 compound groups which can be either single compounds at a single dose or the same compound at 3 doses. […]

[2] = biological target: T1, hCB2-Sf9 membranes (Homo sapiens, UniProt P34972); test: CB2 in vitro functional assay, SPA based GTP-γ-35S binding, agonist mode (antibody capture); format: biochemical; conditions: normalized to full agonist methanandamide, read-out: relative EC50 value for CB2
T1 construct: expressed in transfected cells; host or cells: Sf9
Procedure: (§1) Exemplified compounds are tested in agonist mode using a SPA based GTP-γ-^35S binding assay. All assay components are prepared in assay buffer made up of 20 mM HEPES, 100 mM NaCl, 5 mM MgCl2, (pH 7.4 at room temperature). Semi-log compound dilutions are done in assay buffer containing BSA (final 0.125%). GTP-γ^35-S binding is measured in a 96 well format using a whole membrane capture technique for the CB1 assay and modifications of an antibody capture technique previously described (DeLapp et al. J Pharmacol Exp Ther 289:946-955, 1999) for the CB2 assay. All incubations are done at room temperature.
hCB2-Sf9 membranes and GDP (1 uM final) are added to assay buffer and homogenized. Diluted compounds and membranes are added to the assay plate and pre-incubated for 15 minutes. This is followed by addition of GTP-γ-^35S (500 nM final) and another 35 minute incubation. Next a mixture containing Nonidet® P40 detergent (0.2% final), anti-Gi antibody (final dilution of 1:362), and 1.25 mg anti-rabbit antibody scintillation proximity assay beads is added. The plates are then sealed, vortexed, and incubated for an additional 2 hours before centrifuging and counting as for CB1.
To analyze data, first subtract background from all wells. Determine percent agonist efficacy by normalizing agonist/inverse agonist dose response data to a full agonist (methanandamide) response. […]

[3] = biological target: T2, hCB1-CHO membranes (Homo sapiens, UniProt P21554); test: CB1 in vitro functional assay, SPA based GTP-γ-35S binding, agonist mode (whole membrane capture); format: biochemical; conditions: normalized to full agonist methanandamide, read-out: relative EC50 value for CB1
T2 construct: expressed in transfected cells; host or cells: CHO
Procedure: as §1
hCB1-CHO membranes, GDP (1 uM final), and saponin (10 ug/mL final) are added to assay buffer and homogenized. Diluted compounds, GTP-γ-^35S (500 nM final) and membranes are added to the assay plate and incubated for 30 minutes. Then 1 mg/well Wheatgerm Agglutinin SPA bead is added, and the plates are sealed, vortexed, and incubated for an additional hour. Plates are then centrifuged at 700×g for 10 minutes and counted for 1 minute per well using a scintillation counter.
To analyze data, first subtract background from all wells. Determine percent agonist efficacy by normalizing agonist/inverse agonist dose response data to a full agonist (methanandamide) response. Analyze the data using a 4-parameter logistic reduced fit with Activity Base and XLFit3.

[4] = biological target: T3, human CB2 receptor (Homo sapiens, UniProt P34972); test: Displacement of 3H-CP55940 from human CB2 receptors; format: binding; conditions: displacement of 3H-CP55940, human CB2 membrane homogenates
T3 construct: expressed in transfected cells
Procedure: (§2) The methods of Felder et al. (Mol. Pharmaocol. 48:443-450, 1995) were utilized with minor modifications. Specifically, membrane homogenates from cells stably or transiently expressing the human or rat CB2 receptor were washed by centrifugation and diluted into a 50 mM Tris HCl (pH 7.4), 5 mM MgCl2, 2.5 mM EDTA, and 0.1% BSA buffer. Specific binding of 3H-CP55940 was defined with 1 μM CP55940. The ability of compounds to displace specific 3H-CP55940 binding was tested over a range of concentrations in the Tris, MgCl2, EDTA, BSA buffer in the presence of 1% dimethyl sulfoxide by incubating at room temperature for 90 minutes in a volume of 300 μl. Unifilter 96-well microplates pretreated with 0.5% polyvinylpyrrolidone, 0.1% polysorbate 20 in water were washed three times with cold Tris buffer. The reaction mixture was then transferred to the filter plate immediately before terminating the incubation by rapid filtration and three 200 μl washes with cold Tris buffer. After the filter plates dried, microscint 20 was added to each well, the plate sealed and counted for determination of disintegrations per minute. The displacement curves were graphed and the resulting Ki values determined utilizing Graphpad Prism.

[5] = biological target: T4, rat CB2 receptor (Rattus norvegicus, UniProt Q9QZN9); test: Displacement of 3H-CP55940 from rat CB2 receptors; format: binding; conditions: displacement of 3H-CP55940, rat CB2 membrane homogenates
T4 construct: expressed in transfected cells
T4 sequence (Q9QZN9 1-360): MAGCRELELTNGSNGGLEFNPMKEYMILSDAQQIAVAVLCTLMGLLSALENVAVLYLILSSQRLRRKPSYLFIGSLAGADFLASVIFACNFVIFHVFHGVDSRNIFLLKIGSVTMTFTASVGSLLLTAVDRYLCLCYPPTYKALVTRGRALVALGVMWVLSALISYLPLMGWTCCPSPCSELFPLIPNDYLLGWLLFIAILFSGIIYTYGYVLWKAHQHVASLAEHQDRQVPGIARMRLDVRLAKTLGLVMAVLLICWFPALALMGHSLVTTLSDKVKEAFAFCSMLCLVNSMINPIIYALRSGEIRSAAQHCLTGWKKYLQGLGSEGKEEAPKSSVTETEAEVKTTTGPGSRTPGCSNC
Procedure: as §2

T2 sequence (P21554 whole entry): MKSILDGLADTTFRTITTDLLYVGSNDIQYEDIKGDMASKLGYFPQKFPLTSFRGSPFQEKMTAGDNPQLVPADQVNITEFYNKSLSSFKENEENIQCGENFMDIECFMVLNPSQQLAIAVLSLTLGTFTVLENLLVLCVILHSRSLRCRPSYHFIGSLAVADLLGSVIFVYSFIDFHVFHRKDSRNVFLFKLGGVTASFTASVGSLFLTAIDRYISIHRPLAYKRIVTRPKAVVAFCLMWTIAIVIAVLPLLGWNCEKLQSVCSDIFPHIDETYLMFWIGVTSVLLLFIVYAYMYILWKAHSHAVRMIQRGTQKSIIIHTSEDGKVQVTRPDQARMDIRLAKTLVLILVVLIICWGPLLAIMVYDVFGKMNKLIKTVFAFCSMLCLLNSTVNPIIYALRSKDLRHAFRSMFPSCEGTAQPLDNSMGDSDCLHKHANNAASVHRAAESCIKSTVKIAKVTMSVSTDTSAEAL
T3 sequence (P34972 whole entry): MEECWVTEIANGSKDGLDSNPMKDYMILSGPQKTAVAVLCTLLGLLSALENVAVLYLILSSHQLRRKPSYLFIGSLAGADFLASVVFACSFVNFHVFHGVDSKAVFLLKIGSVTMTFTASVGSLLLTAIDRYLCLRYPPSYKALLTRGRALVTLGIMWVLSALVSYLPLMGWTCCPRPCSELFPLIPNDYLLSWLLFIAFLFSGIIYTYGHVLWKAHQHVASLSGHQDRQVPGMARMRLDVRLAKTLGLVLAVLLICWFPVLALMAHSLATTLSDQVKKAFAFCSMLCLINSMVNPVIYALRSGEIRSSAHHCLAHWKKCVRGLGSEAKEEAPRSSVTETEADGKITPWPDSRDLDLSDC
T1 sequence (P34972 whole entry): as above

SMILES: Cc1nc(N2CCN(C)CC2)c2nc(-c3ccccc3Cl)n([C@@H]3CCOC3)c2n1.Cl [Example 88, 8-(2-Chloro-phenyl)-2-methyl-6-(4-methyl-piperazin-1-yl)-9-(R)-tetrahydro-furan-3-yl-9H-purine hydrochloride salt]
pain versus vehicle (difference in hind paw weight bearing) ([1]; oral dose 0.3 mg/kg): significantly reduce pain versus vehicle
pain versus vehicle (difference in hind paw weight bearing) ([1]; oral dose 1 mg/kg): significantly reduce pain versus vehicle

SMILES: Cc1nc(N2CCN3C(=O)CCC3C2)c2nc(-c3ccccc3Cl)n(CC3CCOCC3)c2n1 (single isomer, unassigned) [Example 61, 2-[8-(2-Chloro-phenyl)-2-methyl-9-(tetrahydro-pyran-4-ylmethyl)-9H-purin-6-yl]-hexahydro-pyrrolo[1,2-a]pyrazin-6-one hydrochloride salt]
EC50 [2]: 0.018 µM
EC50 [3]: 1.95 µM

Ki [4]: 0.0339 µM
Ki [5]: 0.0313 µM
SMILES: Cc1nc(N2CCN(C)CC2)c2nc(-c3cccnc3C3CC3)n([C@@H]3CCOC3)c2n1 [Example 76, 8-(2-Cyclopropyl-pyridin-3-yl)-2-methyl-6-(4-methyl-piperazin-1-yl)-9-(R)-tetrahydro-furan-3-yl-9H-purine hydrochloride salt]
